Source: patent US4088793A, “Control of nitrosamine formation in nitrite cured meat” (Canada Packers Limited, priority 1977, dated 1978)

Columns and labels:
[1] = Volatile nitrosamine content of cook-out fat from fried nitrite-cured bacon slices streaked with test compound; details: for blocking of formation of nitrosamines: 20 ppm level of incorporation in the meat; for inhibition of nitrosamine formation: in comparison with the untreated controls
From the text: The mechanism by which the 1,2-dihydro- and 1,2,3,4-tetrahydro-6-hydroxyquinoline nitroxides interfere with the formation of nitrosamines at high temperature is not completely understood. However, the invention is not limited by any particular theory of operation. It has been shown by a series of tests with representative compounds that up to 100% of the nitrosamines which normally appear in fried bacon have been eliminated.
The nitroxide compounds from ethoxyquin and from dihydroethoxyquin, prepared as in Examples 1 and 2, respectively, were dissolved in separate portions of winterized soya oil to provide a 4.5% concentration and the resulting solutions were streaked on bacon slices, which had undergone a conventional nitrite cure and plant processing, in quantities providing levels of 1,2-dihydro-2,2,4-trimethyl-6-hydroxy-quinoline nitroxide of from 1 ppm to 100 ppm in the meat for one series of tests and levels of 1 - 20 ppm of the corresponding 1,2,3,4-tetrahydroquinoline nitroxide compound in the meat for another series of tests. Control slices of bacon were streaked with the oil alone. The bacon slices were fried under standardized conditions and the cook-out fat was analyzed for volatile nitrosamine content.

experimental animals = details: tests on experimental animals; cited from earlier work

## 1,2-dihydro-2,2,4-trimethyl-6-hydroxy-quinoline nitroxide [Nitroxide from Ethoxyquin]
[1]
  blocking of formation of nitrosamines: essentially blocked formation of nitrosamines
  inhibition of nitrosamine formation: excellent inhibition of nitrosamine formation
[1]; Example 3: 100 ppm in meat, control product 18 ppb, figures below 3 ppb not reliable
  Nitrosamines In Cook-Out Fat, Test Product: 0 ppb
[1]; Example 4: 50 ppm in meat, control product 19 ppb, figures below 3 ppb not reliable
  Nitrosamines In Cook-Out Fat, Test Product: 0 ppb
[1]; Example 5: 10 ppm in meat, control product 19 ppb
  Nitrosamines In Cook-Out Fat, Test Product: 3 ppb
[1]; Example 6: 1 ppm in meat, control product 19 ppb
  Nitrosamines In Cook-Out Fat, Test Product: 13 ppb
[1]; Example 7: 20 ppm in meat, control product 8 ppb, figures below 3 ppb not reliable
  Nitrosamines In Cook-Out Fat, Test Product: 0 ppb
[1]; Example 8: 10 ppm in meat, control product 8 ppb, figures below 3 ppb not reliable
  Nitrosamines In Cook-Out Fat, Test Product: 0 ppb
[1]; Example 9: 1 ppm in meat, control product 8 ppb, figures below 3 ppb not reliable
  Nitrosamines In Cook-Out Fat, Test Product: 2 ppb
[1]; Example 10: 20 ppm in meat, control product 38 ppb, figures below 3 ppb not reliable
  Nitrosamines In Cook-Out Fat, Test Product: 2 ppb
[1]; Example 11: 10 ppm in meat, control product 38 ppb
  Nitrosamines In Cook-Out Fat, Test Product: 5 ppb
[1]; Example 12: 1 ppm in meat, control product 38 ppb
  Nitrosamines In Cook-Out Fat, Test Product: 16 ppb

## 1,2,3,4-tetrahydro-2,2,4-trimethyl-6-hydroxy-quinoline nitroxide [Nitroxide from Dihydro Ethoxyquin]
[1]
  blocking of formation of nitrosamines: essentially blocked formation of nitrosamines
  inhibition of nitrosamine formation: excellent inhibition of nitrosamine formation
[1]; Example 13: 20 ppm in meat, control product 35 ppb
  Nitrosamines In Cook-Out Fat, Test Product: 3 ppb
[1]; Example 14: 10 ppm in meat, control product 35 ppb
  Nitrosamines In Cook-Out Fat, Test Product: 13 ppb
[1]; Example 15: 1 ppm in meat, control product 35 ppb
  Nitrosamines In Cook-Out Fat, Test Product: 20 ppb
[1]; Example 16: 20 ppm in meat, control product 36 ppb, figures below 3 ppb not reliable
  Nitrosamines In Cook-Out Fat, Test Product: 2 ppb
[1]; Example 17: 10 ppm in meat, control product 36 ppb
  Nitrosamines In Cook-Out Fat, Test Product: 6 ppb
[1]; Example 18: 1 ppm in meat, control product 36 ppb
  Nitrosamines In Cook-Out Fat, Test Product: 22 ppb

## O=NN1CCCC1 [N-nitrosopyrrolidine]
Experimental animals
  carcinogenicity: carcinogenic

## CN(C)N=O [dimethylnitrosamine]
Experimental animals
  carcinogenicity: carcinogenic
